Source: patent US20140113899A1 (priority 2011, published 2014)
Like-named read-outs stand apart in the source and are kept apart here.

Tests used:
Puccinia recondida = assay: Test Example 7: controlling effect of isopyrazam and Compound I-1 on wheat brown rust; format: in vivo
Procedure: Isopyrazam and Compound I-1 were mixed at a given ratio and a test for a cooperative effect against wheat brown rust was carried out. First, a chemical suspension containing isopyrazam and Compound I-1 were prepared and sprayed on a pot of a wheat plant at two leaves stage so that thus sprayed isopyrazam and Compound I-1 became a predetermined dosage. Then, after the pot was left for approximately one hour at a room temperature so that the plant body dries, Puccinia recondida was inoculated by spraying an urediniospore suspended solution (1×10^5/ml) of Puccinia recondida. Then, the pot was kept in a wet chamber at 20° C. for 15 hours, and after 14 days, onset of disease was examined by a disease-onset area index. Here, the test was conducted by use of one plot pot.

Pyricularia oryzae [1] = format: cell-based
Alternaria alternata = assay: Test Example 15: in vitro antimicrobial activity test with fenpropimorph and Compound I-1; format: cell-based
Text: Then, a mycelial growth inhibition ratio against Alternaria alternata was obtained.

Fusarium graminearum [2] = format: in vivo
Glomerella cingulata = assay: Test Example 4: in vitro antimicrobial activity test with bixafen and Compound I-1; format: cell-based
[3] = system: Pseudocercoporella herpotrichoides; assay: Test Example 16: in vitro antimicrobial activity test with thiophanate-methyl and Compound I-1; format: cell-based
Microdocum nivale [4] = assay: Test Example 10: in vitro antimicrobial activity test with penthiopyrad and Compound I-1
Procedure: (§1) In the test, a flora disk of 4 mm in diameter was cut from an area around a colony of Microdocum nivale pre-cultured in advance in a pre-culture PDA medium, and Microdocum nivale was inoculated on the PDA medium where chemical agents were mixed. After culturing at 25° C. for 3 days, a diameter of a grown colony was measured. Then, a mycelial growth inhibition ratio was calculated by comparing the diameter of this grown colony with a diameter of a colony on a medium without the chemical agents. As in Test Example 1, a cooperative effect was judged by use of Colby's formula.
Then, a mycelial growth inhibition ratio against Microdocum nivale was obtained.

Botrytis cinere = assay: Test Example 11: in vitro antimicrobial activity test with azoxystrobin and Compound I-1; format: cell-based
Text: Then, a mycelial growth inhibition ratio against Botrytis cinere was obtained.

Gaeumannomyces graminis = assay: Test Example 13: in vitro antimicrobial activity test with prochloraz and Compound I-1; format: cell-based
Text: Then, a mycelial growth inhibition ratio against Gaeumannomyces graminis was obtained.

Fusarium graminearum [5] = format: in vivo; conditions: wettable powder containing only the compound, 500 mg/L, sprayed at 1,000 L/ha; fourth to seventh days after inoculation
Rhizoctonia solani = assay: Test Example 18: in vitro antimicrobial activity test with chlorothalonil and Compound I-1; format: cell-based
Pythium aphanidermatum = assay: Test Example 19: in vitro antimicrobial activity test with metalaxyl and Compound I-1; format: cell-based
Microdocum nivale [6] = assay: Test Example 9: in vitro antimicrobial activity test with benodanil and Compound I-1
Procedure: as §1

Fusarium graminearum [7] = format: in vivo; remark: listed apart in the source
Microdocum nivale [8] = assay: Test Example 14: in vitro antimicrobial activity test with prothioconazole and Compound I-1
Fusarium graminearum [9] = format: in vivo; remark: listed apart in the source
Fusarium graminearum [10] = format: in vivo; conditions: Fluopyram 20 g/ha alone
Fusarium graminearum [11] = format: in vivo; conditions: Furametpyr 20 g/ha alone
Pyricularia oryzae [12] = format: cell-based; remark: listed apart in the source
[13] = compound 25 g/ha alone (Metconazole 0 g/ha)
[14] = compound 50 g/ha alone (Metconazole 0 g/ha)
[15] = compound 75 g/ha alone (Metconazole 0 g/ha)

CC(C)C1C2CCC1c1c(NC(=O)c3cn(C)nc3C(F)F)cccc12 (stereo not drawn) [Isopyrazam]
Actual Protective Value (Puccinia recondida; Isopyrazam 3.125 g/ha alone): 57

CC(C)C1CCC(Cc2ccc(Cl)cc2)C1(O)Cn1cncn1 (stereo not drawn) [Ipconazole]
Mycelial Growth Inhibition Ratio % Measured Value (Pyricularia oryzae [1]; Ipconazole 0.0393 ppm alone): 11% | Mycelial Growth Inhibition Ratio % Measured Value (Pyricularia oryzae [1]; Ipconazole 0.1575 ppm alone): 33% | Mycelial Growth Inhibition Ratio % Measured Value (Pyricularia oryzae [1]; Ipconazole 0.63 ppm alone): 72%

CC(Cc1ccc(C(C)(C)C)cc1)CN1C[C@@H](C)O[C@@H](C)C1 (stereo partly drawn) [Fenpropimorph]
Mycelial Growth Inhibition Ratio % Measured Value (Alternaria alternata; Fenpropimorph 0.0393 ppm alone): 0% | Mycelial Growth Inhibition Ratio % Measured Value (Alternaria alternata; Fenpropimorph 0.1575 ppm alone): 0%

O=C(Nc1ccccc1-c1ccc(Cl)cc1)c1cccnc1Cl [Boscalid]
Actual Protective Value (Fusarium graminearum [2]; Boscalid 20 g/ha alone): 0 | Actual Protective Value (Fusarium graminearum [2]; Boscalid 40 g/ha alone): 4 | Actual Protective Value (Fusarium graminearum [2]; Boscalid 60 g/ha alone): 15 | Actual Protective Value (Fusarium graminearum [2]; Boscalid 80 g/ha alone): 8

Cn1cc(C(=O)Nc2ccc(F)cc2-c2ccc(Cl)c(Cl)c2)c(C(F)F)n1 [Bixafen]
Mycelial Growth Inhibition Ratio % Measured Value (Glomerella cingulata; Bixafen 0.0393 ppm alone): 5% | Mycelial Growth Inhibition Ratio % Measured Value (Glomerella cingulata; Bixafen 0.1575 ppm alone): 7% | Mycelial Growth Inhibition Ratio % Measured Value (Glomerella cingulata; Bixafen 0.63 ppm alone): 7% | Mycelial Growth Inhibition Ratio % Measured Value (Glomerella cingulata; Bixafen 2.5 ppm alone): 16% | Mycelial Growth Inhibition Ratio % Measured Value (Glomerella cingulata; Bixafen 10 ppm alone): 38%

COC(=O)NC(=S)Nc1ccccc1NC(=S)NC(=O)OC [Thiophanate-methyl]
Mycelial Growth Inhibition Ratio % Measured Value ([3]; Thiophanate-methyl 0.0393 ppm alone): 0% | Mycelial Growth Inhibition Ratio % Measured Value ([3]; Thiophanate-methyl 0.1575 ppm alone): 0% | Mycelial Growth Inhibition Ratio % Measured Value ([3]; Thiophanate-methyl 0.63 ppm alone): 52%

CC(C)CC(C)c1sccc1NC(=O)c1cn(C)nc1C(F)(F)F (stereo not drawn) [Penthiopyrad]
Mycelial Growth Inhibition Ratio % Measured Value (Microdocum nivale [4]; Penthiopyrad 0.0393 ppm alone): 2% | Mycelial Growth Inhibition Ratio % Measured Value (Microdocum nivale [4]; Penthiopyrad 0.1575 ppm alone): 2% | Mycelial Growth Inhibition Ratio % Measured Value (Microdocum nivale [4]; Penthiopyrad 0.63 ppm alone): 2% | Mycelial Growth Inhibition Ratio % Measured Value (Microdocum nivale [4]; Penthiopyrad 2.5 ppm alone): 7% | Mycelial Growth Inhibition Ratio % Measured Value (Microdocum nivale [4]; Penthiopyrad 10 ppm alone): 36%

C[C@@]1(CCl)CC[C@H](Cc2ccc(Cl)cc2)[C@@]1(O)Cn1cncn1 (racemic) [Compound I-1, (1RS,2SR,5SR)-5-(4-chlorobenzyl)-2-chloromethyl-2-methyl-1-(1H-1,2,4-triazole-1-ylmethyl)cyclopentanol]
Mycelial Growth Inhibition Ratio % Measured Value (Glomerella cingulata; Compound (I) 0.005 ppm alone): 13% | Mycelial Growth Inhibition Ratio % Measured Value (Glomerella cingulata; Compound (I) 0.02 ppm alone): 23% | Mycelial Growth Inhibition Ratio % Measured Value (Botrytis cinere; Compound I-1 0.02 ppm alone): 25% | Mycelial Growth Inhibition Ratio % Measured Value (Botrytis cinere; Compound I-1 0.078 ppm alone): 47% | Mycelial Growth Inhibition Ratio % Measured Value (Microdocum nivale [4]; Compound I-1 0.005 ppm alone): 5% | Mycelial Growth Inhibition Ratio % Measured Value (Microdocum nivale [4]; Compound I-1 0.02 ppm alone): 10% | Mycelial Growth Inhibition Ratio % Measured Value (Microdocum nivale [4]; Compound I-1 0.078 ppm alone): 12% | Mycelial Growth Inhibition Ratio % Measured Value (Gaeumannomyces graminis; Compound I-1 0.02 ppm alone): 0% | Mycelial Growth Inhibition Ratio % Measured Value (Gaeumannomyces graminis; Compound I-1 0.078 ppm alone): 17% | Mycelial Growth Inhibition Ratio % Measured Value (Gaeumannomyces graminis; Compound I-1 0.313 ppm alone): 74% | protective value (Fusarium graminearum [5]): ≥ 90% | Mycelial Growth Inhibition Ratio % Measured Value (Rhizoctonia solani; Compound I-1 1.25 ppm alone): 68% | Mycelial Growth Inhibition Ratio % Measured Value (Alternaria alternata; Compound I-1 0.02 ppm alone): 3% | Mycelial Growth Inhibition Ratio % Measured Value (Alternaria alternata; Compound I-1 0.078 ppm alone): 24% | Mycelial Growth Inhibition Ratio % Measured Value (Alternaria alternata; Compound I-1 0.313 ppm alone): 50% | Mycelial Growth Inhibition Ratio % Measured Value ([3]; Compound I-1 0.078 ppm alone): 3% | Mycelial Growth Inhibition Ratio % Measured Value ([3]; Compound I-1 0.313 ppm alone): 42% | Mycelial Growth Inhibition Ratio % Measured Value (Pythium aphanidermatum; Compound I-1 0.005 ppm alone): 9% | Mycelial Growth Inhibition Ratio % Measured Value (Microdocum nivale [6]; Compound I-1 0.078 ppm alone): 8% | Actual Protective Value (Fusarium graminearum [7]; Compound (I) 4 g/ha alone): 9.4 | Actual Protective Value (Fusarium graminearum [7]; Compound (I) 8 g/ha alone): 12.9 | Mycelial Growth Inhibition Ratio % Measured Value (Microdocum nivale [8]; Compound I-1 0.078 ppm alone): 8% | Mycelial Growth Inhibition Ratio % Measured Value (Microdocum nivale [8]; Compound I-1 0.313 ppm alone): 34% | Actual Protective Value (Puccinia recondida; Compound I-1 0.1875 g/ha alone): 13 | Actual Protective Value (Puccinia recondida; Compound I-1 0.375 g/ha alone): 37 | Actual Protective Value (Puccinia recondida; Compound I-1 0.75 g/ha alone): 67 | Actual Protective Value (Puccinia recondida; Compound I-1 1.5 g/ha alone): 80 | Actual Protective Value (Puccinia recondida; Compound I-1 3 g/ha alone): 93

C[C@]1(CCl)CC[C@@H](Cc2ccccc2)[C@]1(O)Cn1cncn1 (racemic) [Compound I-12, (1RS,2SR,5SR)-2-chloromethyl-5-benzyl-2-methyl-1-(1H-1,2,4-triazole-1-ylmethyl)cyclopentanol]
Actual Protective Value (Fusarium graminearum [9]; [13]): 40.0 | Actual Protective Value (Fusarium graminearum [9]; [14]): 65.6 | Actual Protective Value (Fusarium graminearum [9]; [15]): 75.6

CO/C=C(/C(=O)OC)c1ccccc1Oc1cc(Oc2ccccc2C#N)ncn1 [Azoxystrobin]
Mycelial Growth Inhibition Ratio % Measured Value (Botrytis cinere; Azoxystrobin 0.1575 ppm alone): 41% | Mycelial Growth Inhibition Ratio % Measured Value (Botrytis cinere; Azoxystrobin 0.63 ppm alone): 60% | Mycelial Growth Inhibition Ratio % Measured Value (Botrytis cinere; Azoxystrobin 2.5 ppm alone): 69% | Mycelial Growth Inhibition Ratio % Measured Value (Botrytis cinere; Azoxystrobin 10 ppm alone): 71%

CCCN(CCOc1c(Cl)cc(Cl)cc1Cl)C(=O)n1ccnc1 [Prochloraz]
Mycelial Growth Inhibition Ratio % Measured Value (Gaeumannomyces graminis; Prochloraz 0.0393 ppm alone): 12% | Mycelial Growth Inhibition Ratio % Measured Value (Gaeumannomyces graminis; Prochloraz 0.1575 ppm alone): 69% | Mycelial Growth Inhibition Ratio % Measured Value (Gaeumannomyces graminis; Prochloraz 0.63 ppm alone): 98%

COCC(=O)N(c1c(C)cccc1C)C(C)C(=O)OC (stereo not drawn) [Metalaxyl]
Mycelial Growth Inhibition Ratio % Measured Value (Pythium aphanidermatum; Metalaxyl 0.0393 ppm alone): 3% | Mycelial Growth Inhibition Ratio % Measured Value (Pythium aphanidermatum; Metalaxyl 0.1575 ppm alone): 7% | Mycelial Growth Inhibition Ratio % Measured Value (Pythium aphanidermatum; Metalaxyl 0.63 ppm alone): 12% | Mycelial Growth Inhibition Ratio % Measured Value (Pythium aphanidermatum; Metalaxyl 2.5 ppm alone): 14% | Mycelial Growth Inhibition Ratio % Measured Value (Pythium aphanidermatum; Metalaxyl 10 ppm alone): 25%

O=C(NCCc1ncc(C(F)(F)F)cc1Cl)c1ccccc1C(F)(F)F [Fluopyram]
Actual Protective Value (Fusarium graminearum [10]): 0

OC(CC1CC1(Br)Br)(Cn1cncn1)C1(Cl)CC1 (stereo not drawn) [Compound XVII-2, 2-(1-chlorocyclopropyl)-1-(2,2-dibromocyclopropyl)-3-(1H-1,2,4-triazole-1-yl)propane-2-ol]
protective value (Fusarium graminearum [5]): ≥ 90%

Cc1nn(C)c(Cl)c1C(=O)Nc1cccc2c1C(C)OC2(C)C (stereo not drawn) [Furametpyr]
Actual Protective Value (Fusarium graminearum [11]): 0

CC(C)(C)C(O)(CCc1ccc(Cl)cc1)Cn1cncn1 (stereo not drawn) [Tebuconazole]
Mycelial Growth Inhibition Ratio % Measured Value (Pyricularia oryzae [12]; Tebuconazole 0.0393 ppm alone): 3% | Mycelial Growth Inhibition Ratio % Measured Value (Pyricularia oryzae [12]; Tebuconazole 0.1575 ppm alone): 12% | Mycelial Growth Inhibition Ratio % Measured Value (Pyricularia oryzae [12]; Tebuconazole 0.63 ppm alone): 50%

O=C(Nc1ccccc1)c1ccccc1I [Benodanil]
Mycelial Growth Inhibition Ratio % Measured Value (Microdocum nivale [6]; Benodanil 0.0393 ppm alone): 0% | Mycelial Growth Inhibition Ratio % Measured Value (Microdocum nivale [6]; Benodanil 0.1575 ppm alone): 0% | Mycelial Growth Inhibition Ratio % Measured Value (Microdocum nivale [6]; Benodanil 0.63 ppm alone): 0% | Mycelial Growth Inhibition Ratio % Measured Value (Microdocum nivale [6]; Benodanil 2.5 ppm alone): 0% | Mycelial Growth Inhibition Ratio % Measured Value (Microdocum nivale [6]; Benodanil 10 ppm alone): 4%

COC(=O)N(OC)c1ccccc1COc1ccn(-c2ccc(Cl)cc2)n1 [Pyraclostrobin]
Actual Protective Value (Fusarium graminearum [7]; Pyraclostrobin 10 g/ha alone): 10.6 | Actual Protective Value (Fusarium graminearum [7]; Pyraclostrobin 20 g/ha alone): 23.5 | Actual Protective Value (Fusarium graminearum [7]; Pyraclostrobin 30 g/ha alone): 36.5

CC1(C)CCC(Cc2ccc(Cl)cc2)C1(O)Cn1cncn1 (stereo not drawn) [Metconazole]
Actual Protective Value (Fusarium graminearum [9]; Metconazole 10 g/ha alone): 13.9 | Actual Protective Value (Fusarium graminearum [9]; Metconazole 20 g/ha alone): 26.7

C[C@]1(CCl)CC[C@@H](Cc2ccc(F)cc2)[C@]1(O)Cn1cncn1 (racemic) [Compound I-11, (1RS,2SR,5 SR)-2-chloromethyl-5-(4-fluorobenzyl)-2-methyl-1-(1H-1,2,4-triazole-1-ylmethyl)cyclopentanol]
Actual Protective Value (Fusarium graminearum [9]; [13]): 25.6 | Actual Protective Value (Fusarium graminearum [9]; [14]): 56.7 | Actual Protective Value (Fusarium graminearum [9]; [15]): 66.7

N#Cc1c(Cl)c(Cl)c(Cl)c(C#N)c1Cl [Chlorothalonil]
Mycelial Growth Inhibition Ratio % Measured Value (Rhizoctonia solani; Chlorothalonil 0.0393 ppm alone): 0% | Mycelial Growth Inhibition Ratio % Measured Value (Rhizoctonia solani; Chlorothalonil 0.1575 ppm alone): 15% | Mycelial Growth Inhibition Ratio % Measured Value (Rhizoctonia solani; Chlorothalonil 0.63 ppm alone): 74% | Mycelial Growth Inhibition Ratio % Measured Value (Rhizoctonia solani; Chlorothalonil 2.5 ppm alone): 84% | Mycelial Growth Inhibition Ratio % Measured Value (Rhizoctonia solani; Chlorothalonil 10 ppm alone): 98%

OC(Cc1ccccc1Cl)(Cn1nc[nH]c1=S)C1(Cl)CC1 (stereo not drawn) [Prothioconazole]
Mycelial Growth Inhibition Ratio % Measured Value (Microdocum nivale [8]; Prothioconazole 0.1575 ppm alone): 11% | Mycelial Growth Inhibition Ratio % Measured Value (Microdocum nivale [8]; Prothioconazole 0.63 ppm alone): 34% | Mycelial Growth Inhibition Ratio % Measured Value (Microdocum nivale [8]; Prothioconazole 2.5 ppm alone): 76%
